Values after ≈ are worked out from the molar mass of the structure shown. Read-outs that look alike come from different tables or passages of the source.
Legend:
[1] = tested on: full length SMN2 minigene mRNA; assay: SMN2 minigene mRNA splicing RT-qPCR assay in cultured cells; format: cell-based, human; conditions: Homo sapiens, HEK293-H; HEK293H cells stably transfected with SMN2-A minigene, 24 hours, 7-point concentration curve; read-out: EC1.5x minigene
From the text: The term “EC1.5x concentration for production of full length SMN2 minigene mRNA” (or “EC1.5x minigene”) is defined as that concentration of test compound that is effective in increasing the amount of full length SMN2 minigene mRNA to a level 1.5-fold greater relative to that in vehicle-treated cells.
The reverse transcription-quantitative PCR-based (RT-qPCR) assay is used to quantify the level of the full length SMN2 minigene (referred to herein by the term “FL SMN2mini”) mRNA containing SMN2 exon 7 in a HEK293H cell line stably transfected with said minigene and treated with a test compound. Materials used and respective sources are listed below in Table 1.
The SMN2-A minigene construct was prepared as described in International Patent Application WO2009/151546A1 page 145 paragraph [00400] to page 147 paragraph [00412](incl. FIG. 1 and FIG. 3 therein).
HEK293H cells stably transfected with the SMN2-A minigene construct (10,000 cells/well) are seeded in 200 μL of cell culture medium (DMEM plus 10% FBS, with 200 μg/mL hygromycin) in 96-well flat-bottom plates and the plate is immediately swirled to ensure proper dispersal of cells and the formation of an even monolayer of cells. Cells are allowed to attach for 6 hours. Test compounds are serially diluted 3.16-fold in 100% DMSO to generate a 7-point concentration curve. A solution of test compound (1 μL, 200× in DMSO) is added to each cell-containing well and the plate is incubated for 24 hours in a cell culture incubator (37° C., 5% CO2, 100% relative humidity). 2 replicates are prepared for each test compound concentration. The cells are then lysed in the Cells-To-Ct lysis buffer and the lysate is stored at −80° C.
Full length SMN2-A minigene and GAPDH mRNA are quantified using the primers and probes referenced in WO2014/209841A2 on page 80 in Table 1. Primer SMN Forward A (SEQ ID NO.1) hybridizes to a nucleotide sequence in exon 7 (nucleotide 22 to nucleotide 40), primer SMN Reverse A (SEQ ID NO.2) hybridizes to a nucleotide sequence in the coding sequence of Firefly luciferase, SMN Probe A (SEQ ID NO.3) hybridizes to a nucleotide sequence in exon 7 (nucleotide 50 to nucleotide 54) and exon 8 (nucleotide 1 to nucleotide 21). The combination of these three oligonucleotides detects only SMN1 or SMN2 minigenes (RT-qPCR) and will not detect endogenous SMN1 or SMN2 genes.
The SMN forward and reverse primers are used at final concentrations of 0.4 μM. The SMN probe is used at a final concentration of 0.15 μM. The GAPDH primers are used at final concentrations of 0.2 μM and the probe at 0.15 μM.
The SMN2-minigene GAPDH mix (15 μL total volume) is prepared by combining 7.5 μL of 2×RT-PCR buffer, 0.4 μL of 25×RT-PCR enzyme mix, 0.75 μL of 20×GAPDH primer-probe mix, 4.0075 μL of water, 2 μL of 10-fold diluted cell lysate, 0.06 μL of 100 μM SMN forward primer, 0.06 μL of 100 μM SMN reverse primer, and 0.225 μL of 100 μM SMN probe.
PCR is carried out at the following temperatures for the indicated time: Step 1: 48° C. (15 min); Step 2: 95° C. (10 min); Step 3: 95° C. (15 sec); Step 4: 60° C. (1 min); then repeat Steps 3 and 4 for a total of 40 cycles.
Each reaction mixture contains both SMN2-A minigene and GAPDH primers/probe sets (multiplex design), allowing simultaneous measurement of the levels of two transcripts.
The increase in the abundance of the FL SMN2mini mRNA relative to that in cells treated with vehicle control is determined from real-time PCR data using a modified ΔΔCt method (as described in Livak and Schmittgen, Methods, 2001, 25:402-8). The amplification efficiency E is calculated from the slope of the amplification curve for FL SMN2mini and GAPDH individually. The abundance of FL SMN2mini and GAPDH mRNA are then calculated as (1+E)^−Ct, where Ct is the threshold value for each amplicon. The abundance of FL SMN2mini mRNA is normalized to GAPDH mRNA abundance. […]

Solubility = format: physicochemical
adult mice = conditions: cited from earlier work
neonatal rats = conditions: cited from earlier work
[2] = tested on: patients with Types 2 and 3 SMA; conditions: two-year treatment period, compared with approximately two-point decline in the placebo arm; cited from earlier work
[3] = Stability of olesoxime (solid state, oral suspension in sesame oil); format: physicochemical; conditions: 25° C./60% RH
Description: Examples of compositions comprising olexosime are described in US2010099652A1. […] Olesoxime has low aqueous solubility (less than 5 μg/ml) across the physiological pH range. It is freely soluble or soluble in a range of non-aqueous solvents.
7.5 g crystalline olesoxime powder (particle size distribution with d90 value 70-90 μm) was suspended in 75 ml (61.6 g) sesame oil (refined) as vehicle through agitation (e.g. shaking) to yield a homogeneous suspension (final olesoxime concentration 100 mg/ml).

[4] = tested on: splicing events and expression levels of genes; conditions: Palacino et al, Nat Chem Biol. 2015, cited from earlier work

Row | SMILES | EC (1.5-fold increase) [1] [µM] | also measured
1 | Cc1cn2nc(-c3cc(=O)n4cc(N5CCNC6(CC6)C5)cc(C)c4n3)cc(C)c2n1 [Example 28, 7-(4,7-diazaspiro[2.5]octan-7-yl)-2-(2,8-dimethylimidazo[1,2-b]pyridazin-6-yl)-9-methyl-pyrido[1,2-a]pyrimidin-4-one] | 0.005 | 
2 | CC(C)CCC[C@@H](C)[C@H]1CC[C@H]2[C@@H]3CCC4=C/C(=N/O)CC[C@]4(C)[C@H]3CC[C@]12C (stereo in doubt) [Olesoxime, Cholest-4-en-3-one oxime] |  | solubility (Solubility; aqueous medium, aqueous buffer, across the physiological pH range, read-out: aqueous solubility): < 0.005 mg/mL; solubility (Solubility; sesame oil, oil or lipid, read-out: solubility in sesame oil): ~35 mg/mL (≈ 87.6 mM); effect on nerve regeneration after nerve crush (adult mice): promotes nerve regeneration; effect on motor neurons after nerve lesion (neonatal rats): rescues motor neurons from cell death; motor function (motor function measure, MFM) [2]: maintenance of motor function; stable in the solid state [3]: > 36 months
3 | Cc1cn2nc(-c3cc(=O)n4cc(N5CCNC(C)(C)C5)cc(C)c4n3)ccc2n1 [Example 36, 7-(3,3-dimethylpiperazin-1-yl)-9-methyl-2-(2-methylimidazo[1,2-b]pyridazin-6-yl)pyrido[1,2-a]pyrimidin-4-one] | 0.005 | 
4 | CC[C@@H]1CN(c2ccc3nc(-c4ccc5nc(C)cn5n4)cc(=O)n3c2)CCN1 [Example 39, 7-[(3R)-3-ethylpiperazin-1-yl]-2-(2-methylimidazo[1,2-b]pyridazin-6-yl)pyrido[1,2-a]pyrimidin-4-one] | 0.0009 | 
5 | Cc1cn2nc(-c3cc(=O)n4cc(N5CCNC(C)(C)C5)ccc4n3)cc(C)c2n1 [Example 22, 2-(2,8-dimethylimidazo[1,2-b]pyridazin-6-yl)-7-(3,3-dimethylpiperazin-1-yl)pyrido[1,2-a]pyrimidin-4-one] | 0.0009 | 
6 | Cc1cn2nc(-c3cc(=O)n4cc(N5CCN[C@H](C)C5)cc(C)c4n3)ccc2n1 [Example 34, 9-methyl-2-(2-methylimidazo[1,2-b]pyridazin-6-yl)-7-[(3R)-3-methylpiperazin-1-yl]pyrido[1,2-a]pyrimidin-4-one] | 0.0009 | 
7 | Cc1cn2nc(-c3cc(=O)n4cc(N5C[C@H](C)N[C@@H](C)C5)cc(C)c4n3)ccc2n1 [Example 38, 7-[(3S,5S)-3,5-dimethylpiperazin-1-yl]-9-methyl-2-(2-methylimidazo[1,2-b]pyridazin-6-yl)pyrido[1,2-a]pyrimidin-4-one] | 0.0003 | 
8 | Cc1cn2nc(-c3cc(=O)n4cc(N5CCCNCC5)ccc4n3)ccc2n1 [Example 13, 7-(1,4-diazepan-1-yl)-2-(2-methylimidazo[1,2-b]pyridazin-6-yl)pyrido[1,2-a]pyrimidin-4-one] | 0.005 | 
9 | Cc1cn2nc(-c3cc(=O)n4cc(N5CCN[C@H](C)C5)cc(C)c4n3)cc(C)c2n1 [Example 25, 2-(2,8-dimethylimidazo[1,2-b]pyridazin-6-yl)-9-methyl-7-[(3R)-3-methylpiperazin-1-yl]pyrido[1,2-a]pyrimidin-4-one] | 0.0005 | 
10 | CC1(C)CC(Oc2ccc(-c3ccc(-c4cn[nH]c4)cc3O)nn2)CC(C)(C)N1 [NVS-SM1] |  | candidate events where splicing changed in response to treatment [4]: 39; number of genes changed at greater than ±2-fold (p<0.05) ([4]; expression level): 175
11 | Cc1cn2nc(-c3cc(=O)n4cc(N5CCN6CCC[C@H]6C5)ccc4n3)ccc2n1 [Example 15, 7-[(8aS)-3,4,6,7,8,8a-hexahydro-1H-pyrrolo[1,2-a]pyrazin-2-yl]-2-(2-methylimidazo[1,2-b]pyridazin-6-yl)pyrido[1,2-a]pyrimidin-4-one] | 0.004 | 
12 | Cc1cn2nc(-c3cc(=O)n4cc(N5CCN[C@@H](C)C5)ccc4n3)cc(C)c2n1 [Example 8, 2-(2,8-dimethylimidazo[1,2-b]pyridazin-6-yl)-7-[(3S)-3-methylpiperazin-1-yl]pyrido[1,2-a]pyrimidin-4-one] | 0.0003 | 
13 | Cc1cn2nc(-c3cc(=O)n4cc(N5CCN[C@H](C)C5)ccc4n3)cc(C)c2n1 [Example 9, 2-(2,8-dimethylimidazo[1,2-b]pyridazin-6-yl)-7-[(3R)-3-methylpiperazin-1-yl]pyrido[1,2-a]pyrimidin-4-one] | 0.0001 | 
14 | Cc1cn2nc(-c3cc(=O)n4cc(N5CCN6CCC[C@@]6(C)C5)ccc4n3)cc(C)c2n1 [Example 5, 7-[(8aS)-8a-methyl-1,3,4,6,7,8-hexahydropyrrolo[1,2-a]pyrazin-2-yl]-2-(2,8-dimethylimidazo[1,2-b]pyridazin-6-yl)pyrido[1,2-a]pyrimidin-4-one] | 0.0006 | 
15 | Cc1cn2nc(-c3cc(=O)n4cc(N5CC[C@H](N6CCCC6)C5)ccc4n3)cc(C)c2n1 [Example 30, 2-(2,8-dimethylimidazo[1,2-b]pyridazin-6-yl)-7-[(3S)-3-pyrrolidin-1-ylpyrrolidin-1-yl]pyrido[1,2-a]pyrimidin-4-one] | 0.003 | 
16 | Cc1cn2nc(-c3cc(=O)n4cc(N5C[C@H](C)N[C@@H](C)C5)ccc4n3)cc(C)c2n1 [Example 29, 2-(2,8-dimethylimidazo[1,2-b]pyridazin-6-yl)-7-[(3S,5S)-3,5-dimethylpiperazin-1-yl]pyrido[1,2-a]pyrimidin-4-one] | 0.0003 | 
17 | Cc1cn2nc(-c3cc(=O)n4cc(N5CCN[C@@H](C)C5)cc(C)c4n3)cc(C)c2n1 [Example 24, 2-(2,8-dimethylimidazo[1,2-b]pyridazin-6-yl)-9-methyl-7-[(3S)-3-methylpiperazin-1-yl]pyrido[1,2-a]pyrimidin-4-one] | 0.0004 | 
18 | Cc1cn2nc(-c3cc(=O)n4cc(N5CCN[C@@H](C)C5)cc(C)c4n3)ccc2n1 [Example 33, 9-methyl-2-(2-methylimidazo[1,2-b]pyridazin-6-yl)-7-[(3S)-3-methylpiperazin-1-yl]pyrido[1,2-a]pyrimidin-4-one] | 0.0005 | 
